For 29 molecules, IC50 results are on record in patent publication US11512097B2, “Heterocyclic compounds as Delta-5 desaturase inhibitors and methods of use” (Amgen Inc., priority 2019, dated 2022).

The target of this test is T1, Delta-5-Desaturase (D5D), membrane preparations of D5D-overexpressing HEK293 6E cells (Homo sapiens, UniProt O60427).
T1 construct: expressed in transfected cells; host or cells: HEK293 6E cells (membrane preparation)
T1 sequence (O60427 whole entry, species assumed): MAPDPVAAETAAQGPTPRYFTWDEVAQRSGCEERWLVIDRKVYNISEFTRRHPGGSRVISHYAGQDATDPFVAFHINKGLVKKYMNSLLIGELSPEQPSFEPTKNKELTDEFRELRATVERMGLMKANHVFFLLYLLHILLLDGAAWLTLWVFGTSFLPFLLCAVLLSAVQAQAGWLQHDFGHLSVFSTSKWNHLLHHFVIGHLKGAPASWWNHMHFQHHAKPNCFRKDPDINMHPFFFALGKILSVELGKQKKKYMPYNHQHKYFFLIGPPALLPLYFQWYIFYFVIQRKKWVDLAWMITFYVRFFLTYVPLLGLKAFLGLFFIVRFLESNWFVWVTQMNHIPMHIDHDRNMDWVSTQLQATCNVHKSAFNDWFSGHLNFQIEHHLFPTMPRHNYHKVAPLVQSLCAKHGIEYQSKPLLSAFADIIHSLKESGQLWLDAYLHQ
The test can be described thus: In vitro measurement of Delta-5-Desaturase inhibitory activity using DGLA-CoA and Arachidonyl-CoA mass spectrometric assays. It counts as biochemical. Conditions: D5D membrane 10 μg/mL, one-hour incubation, average of at least two independent runs. A digest of the protocol:
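Substrate mix (0.01 mM DGLA with NADH, ATP, coenzyme A) was incubated 1 h at room temperature with HEK293 6E D5D membranes at 10 μg/mL final, pH 7.5. Negative-mode SPE-MS/MS monitored DGLA-CoA (m/z 526.6) and arachidonyl-CoA (m/z 525.6). Inhibition normalised to DMSO and no-enzyme wells gave IC50s, mean of ≥2 runs.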
On to `Cc1cn2c(=O)c(-c3ccn(CC(F)(F)C(F)(F)F)n3)c(C(F)(F)F)nc2n1C` [Example 70, 1,2-dimethyl-6-[1-(2,2,3,3,3-pentafluoropropyl)-1H-pyrazol-3-yl]-7-(trifluoromethyl)-1H,5H-imidazo[1,2-a]pyrimidin-5-one], for which the IC50 (commonly the concentration needed to halve the response being measured) amounted to 5150 nM.

Take `O=c1c(-c2ccc(OCC(F)(F)F)cc2)c(C(F)(F)F)nc2sc(CO)cn12` [Example 33, 2-(hydroxymethyl)-6-[4-(2,2,2-trifluoroethoxy)phenyl]-7-(trifluoromethyl)-5H-[1,3]thiazolo[3,2-a]pyrimidin-5-one]: the IC50 amounted to 0.9 nM. Compared with the last molecule, the IC50 is about 5700-fold lower.

The molecule `O=C1Cn2c(nc(C(F)(F)F)c(-c3cnn(CC(F)(F)C(F)(F)F)c3)c2=O)N1` [Example 47, 6-[1-(2,2,3,3,3-pentafluoropropyl)-1H-pyrazol-4-yl]-7-(trifluoromethyl)-1H,2H,3H,5H-imidazo[1,2-a]pyrimidine-2,5-dione] gave a 50% inhibitory concentration (IC50) of 4950 nM.

In the case of `Cn1c(Cl)cn2c(=O)c(-c3cnn(CCC(F)(F)F)c3)c(C(F)(F)F)nc12` [Example 51, 2-chloro-1-methyl-7-(trifluoromethyl)-6-[1-(3,3,3-trifluoropropyl)-1H-pyrazol-4-yl]-1H,5H-imidazo[1,2-a]pyrimidin-5-one], the IC50 came to 36.8 nM.

As for `Cc1nn2c(=O)c(-c3cnn(CC4CC4(F)F)c3)c(C(F)(F)F)nc2s1` (centres unmarked) [Example 23, 6-{1-[(2,2-difluorocyclopropyl)methyl]-1H-pyrazol-4-yl}-2-methyl-7-(trifluoromethyl)-5H-[1,3,4]thiadiazolo[3,2-a]pyrimidin-5-one], the IC50 was 158 nM. Against the preceding molecule, the IC50 is about 4.3-fold higher.

Turning to `Cc1cn2c(=O)c(-c3cnn(CC(F)(F)C(F)(F)F)c3)c(C(F)(F)F)nc2n1-c1cnccn1` [Example 95, 2-methyl-6-[1-(2,2,3,3,3-pentafluoropropyl)-1H-pyrazol-4-yl]-1-(pyrazin-2-yl)-7-(trifluoromethyl)-1H,5H-imidazo[1,2-a]pyrimidin-5-one], the IC50 came to 247 nM.

`CC1Cn2c(nc(C(F)(F)F)c(-c3cnn(CC(F)(F)C(F)(F)F)c3)c2=O)S1` (centres unmarked) [Example 24, 2-methyl-6-[1-(2,2,3,3,3-pentafluoropropyl)-1H-pyrazol-4-yl]-7-(trifluoromethyl)-2H,3H,5H-[1,3]thiazolo[3,2-a]pyrimidin-5-one]: 168 nM corresponded to half-maximal inhibition (IC50).

As to `Cc1cn2c(=O)c(-c3cnn(CC(F)(F)C(F)(F)F)c3)c(C(F)(F)F)nc2[nH]1` [Example 73, 2-methyl-6-[1-(2,2,3,3,3-pentafluoropropyl)-1H-pyrazol-4-yl]-7-(trifluoromethyl)-1H,5H-imidazo[1,2-a]pyrimidin-5-one], the IC50 turned out to be 35.7 nM. Compared with the last molecule, the IC50 is about 4.7-fold lower.

`O=c1c(-c2cnn(CCC(F)(F)F)c2)c(C(F)(F)F)nc2sc(CO)nn12` [Example 46, 2-(hydroxymethyl)-7-(trifluoromethyl)-6-[1-(3,3,3-trifluoropropyl)-1H-pyrazol-4-yl]-5H-[1,3,4]thiadiazolo[3,2-a]pyrimidin-5-one] registered an IC50 of 36.1 nM.

In turn, `Cc1cn2c(=O)c(-c3cnn(CC(F)(F)C(F)(F)F)c3)c(C(F)(F)F)nc2n1-c1cncnc1` [Example 99, 2-methyl-6-[1-(2,2,3,3,3-pentafluoropropyl)-1H-pyrazol-4-yl]-1-(pyrimidin-5-yl)-7-(trifluoromethyl)-1H,5H-imidazo[1,2-a]pyrimidin-5-one] had an IC50 of 36100 nM.

The molecule `COCc1cn2c(=O)c(-c3cnn(CC(F)(F)C(F)(F)F)c3)c(C(F)(F)F)nc2n1C` [Example 55, 2-(methoxymethyl)-1-methyl-6-[1-(2,2,3,3,3-pentafluoropropyl)-1H-pyrazol-4-yl]-7-(trifluoromethyl)-1H,5H-imidazo[1,2-a]pyrimidin-5-one] came in with an IC50 of 210 nM.

`CCc1nc2sc(C)nn2c(=O)c1-c1cnn(CC(F)(F)C(F)(F)F)c1` [Example 15, 7-ethyl-2-methyl-6-[1-(2,2,3,3,3-pentafluoropropyl)-1H-pyrazol-4-yl]-5H-[1,3,4]thiadiazolo[3,2-a]pyrimidin-5-one] yielded an IC50 of 1510 nM.

In the case of `CNCc1nn2c(=O)c(-c3cnn(CC(F)(F)C(F)(F)F)c3)c(C(F)(F)F)nc2s1` [Example 106, 2-[(methylamino)methyl]-6-[1-(2,2,3,3,3-pentafluoropropyl)-1H-pyrazol-4-yl]-7-(trifluoromethyl)-5H-[1,3,4]thiadiazolo[3,2-a]pyrimidin-5-one], the half-inhibitory concentration (IC50) was 61500 nM.

The molecule `O=c1c(-c2cnn(CC(F)(F)C(F)(F)F)c2)c(C(F)(F)F)nc2scc(C(F)(F)F)n12` [Example 6, 6-[1-(2,2,3,3,3-pentafluoropropyl)-1H-pyrazol-4-yl]-3,7-bis(trifluoromethyl)-5H-[1,3]thiazolo[3,2-a]pyrimidin-5-one] showed an IC50 of 271 nM. This IC50 is about 230-fold lower than that of the molecule before.

In turn, `COCc1nn2c(=O)c(-c3cnn(CCC(F)(F)F)c3)c(C(F)(F)F)nc2s1` [Example 10, 2-(methoxymethyl)-7-(trifluoromethyl)-6-[1-(3,3,3-trifluoropropyl)-1H-pyrazol-4-yl]-5H-[1,3,4]thiadiazolo[3,2-a]pyrimidin-5-one] yielded an IC50 of 27.4 nM.

For `Cc1cn2c(=O)c(-c3cnn(CC(F)(F)C(F)(F)F)c3)c(C(F)(F)F)nc2s1` [Example 4, 2-methyl-6-[1-(2,2,3,3,3-pentafluoropropyl)-1H-pyrazol-4-yl]-7-(trifluoromethyl)-5H-[1,3]thiazolo[3,2-a]pyrimidin-5-one], half-maximal inhibition (IC50) required 17.8 nM.

On to `CN1C(=O)C(C)(C)n2c1nc(C(F)(F)F)c(-c1cnn(CC(F)(F)C(F)(F)F)c1)c2=O` [Example 36, 1,3,3-trimethyl-6-[1-(2,2,3,3,3-pentafluoropropyl)-1H-pyrazol-4-yl]-7-(trifluoromethyl)-1H,2H,3H,5H-imidazo[1,2-a]pyrimidine-2,5-dione], for which the IC50 was more than 67000 nM.

Consider `O=c1c(-c2cnn(CCC(F)(F)F)c2)c(C(F)(F)F)nc2sc(C3CC3)nn12` [Example 12, 2-cyclopropyl-7-(trifluoromethyl)-6-[1-(3,3,3-trifluoropropyl)-1H-pyrazol-4-yl]-5H-[1,3,4]thiadiazolo[3,2-a]pyrimidin-5-one], for which 248 nM corresponded to half-maximal inhibition (IC50). This counts as sub-micromolar.

Molecule `Cc1cn2c(=O)c(-c3cnn(CC(F)(F)C(F)(F)F)c3)c(C(F)(F)F)nc2n1-c1cnn(C)c1` [Example 97, 2-methyl-1-(1-methyl-1H-pyrazol-4-yl)-6-[1-(2,2,3,3,3-pentafluoropropyl)-1H-pyrazol-4-yl]-7-(trifluoromethyl)-1H,5H-imidazo[1,2-a]pyrimidin-5-one] returned an IC50 of 29.3 nM.

`CN(C)Cc1nn2c(=O)c(-c3cnn(CC(F)(F)C(F)(F)F)c3)c(C(F)(F)F)nc2s1` [Example 105, 2-[(dimethylamino)methyl]-6-[1-(2,2,3,3,3-pentafluoropropyl)-1H-pyrazol-4-yl]-7-(trifluoromethyl)-5H-[1,3,4]thiadiazolo[3,2-a]pyrimidin-5-one] displayed an IC50 of 10500 nM.

The molecule `Cc1cn2c(=O)c(-c3cnn(CC(F)(F)C(F)(F)F)c3)c(C(F)(F)F)nc2n1C1COC1` [Example 91, 2-methyl-1-(oxetan-3-yl)-6-[1-(2,2,3,3,3-pentafluoropropyl)-1H-pyrazol-4-yl]-7-(trifluoromethyl)-1H,5H-imidazo[1,2-a]pyrimidin-5-one] gave an IC50 of 10.1 nM.

Turning to `Cc1cn2c(=O)c(-c3cnn(CCC(F)(F)F)c3)c(C(F)(F)F)nc2[nH]1` [Example 74, 2-methyl-7-(trifluoromethyl)-6-[1-(3,3,3-trifluoropropyl)-1H-pyrazol-4-yl]-1H,5H-imidazo[1,2-a]pyrimidin-5-one], half-maximal inhibition (IC50) required 4.7 nM.

`Cc1cn(C)n2c(=O)c(-c3cnn(CC(F)(F)C(F)(F)F)c3)c(C(F)(F)F)nc12` [Example 18, 1,3-dimethyl-6-[1-(2,2,3,3,3-pentafluoropropyl)-1H-pyrazol-4-yl]-5-(trifluoromethyl)-1H,7H-pyrazolo[1,5-a]pyrimidin-7-one] had an IC50 of 3630 nM.

For `Cc1nn2c(=O)c(-c3cnn(CC4COC4)c3)c(C(F)(F)F)nc2s1` [Example 29, 2-methyl-6-{1-[(oxetan-3-yl)methyl]-1H-pyrazol-4-yl}-7-(trifluoromethyl)-5H-[1,3,4]thiadiazolo[3,2-a]pyrimidin-5-one], the IC50 was 1580 nM.

As to `Cc1cn2c(=O)c(-c3cnn(CCC(F)(F)F)c3)c(C(F)(F)F)nc2n1CC#N` [Example 87, 2-[2-methyl-5-oxo-7-(trifluoromethyl)-6-[1-(3,3,3-trifluoropropyl)-1H-pyrazol-4-yl]-1H,5H-imidazo[1,2-a]pyrimidin-1-yl]acetonitrile], the IC50 was found to be 3.7 nM.

`Cc1cn2c(=O)c(-c3cnn(CC4COC4)c3)c(C(F)(F)F)nc2n1C` [Example 65, 1,2-dimethyl-6-{1-[(oxetan-3-yl)methyl]-1H-pyrazol-4-yl}-7-(trifluoromethyl)-1H,5H-imidazo[1,2-a]pyrimidin-5-one]: the IC50 worked out at 815 nM. Compared with the last molecule, the IC50 is about 220-fold higher.

As for `Cc1cc2nc(C(F)(F)F)c(-c3cnn(CC(F)(F)C(F)(F)F)c3)c(=O)n2n1C` [Example 16, 1,2-dimethyl-6-[1-(2,2,3,3,3-pentafluoropropyl)-1H-pyrazol-4-yl]-5-(trifluoromethyl)-1H,7H-pyrazolo[1,5-a]pyrimidin-7-one], the IC50 is 9410 nM.

`Cc1cn2c(=O)c(-c3cnn(CC(F)(F)C(F)(F)F)c3)c(C(F)(F)F)nc2n1-c1ccccn1` [Example 93, 2-methyl-6-[1-(2,2,3,3,3-pentafluoropropyl)-1H-pyrazol-4-yl]-1-(pyridin-2-yl)-7-(trifluoromethyl)-1H,5H-imidazo[1,2-a]pyrimidin-5-one] gave an IC50 of 678 nM.

With `Cc1cn2c(=O)c(-c3cnn(CCC(F)(F)F)c3)c(C(F)(F)F)nc2n1CCN(C)C` [Example 67, 1-[2-(dimethylamino)ethyl]-2-methyl-7-(trifluoromethyl)-6-[1-(3,3,3-trifluoropropyl)-1H-pyrazol-4-yl]-1H,5H-imidazo[1,2-a]pyrimidin-5-one], the IC50 came out at 1480 nM. This IC50 lies about 2.2-fold higher than the previous one.
